From patent publication US9902736B2, “1-oxo/acylation-14-acylated oridonin derivative, preparation method therefor and application thereof” (HANGZHOU BENSHENG PHARMACEUTICAL CO., LTD., priority 2012, dated 2018)
Values after ≈ are worked out from the molar mass of the structure shown.

Tests used:
CaEs-17 = experiment: Solid tumor cell growth inhibition, MTT, 72 h; type: cell-based; conditions: Homo sapiens, CaEs17
Procedure: (§1) 6000 well-growing human solid tumor cells were obtained and inoculated into wells of a 96-well cell culture plate. The culture medium was DMEM High Glucose cell culture medium containing 10% fetal bovine serum. The plate was placed in a carbon dioxide cell incubator (5% CO2) at 37° C. and incubated for 24 hours. After added with 1-oxo/acylated-14-acylated oridonin derivatives of different concentration and mixed uniformly, the plate was placed in a carbon dioxide cell incubator (5% CO2) at 37° C. and incubated for 72 hours. Then the viable cell concentration was determined by MTT method.

PANC-1 = experiment: Solid tumor cell growth inhibition, MTT, 72 h; type: cell-based; conditions: Homo sapiens
Procedure: as §1

RKO = experiment: Solid tumor cell growth inhibition, MTT, 72 h; type: cell-based; conditions: Homo sapiens
Procedure: as §1

U87-MG = experiment: Solid tumor cell growth inhibition, MTT, 72 h; type: cell-based; conditions: Homo sapiens, U-87 MG
Procedure: as §1

A549 = experiment: Solid tumor cell growth inhibition, MTT, 72 h; type: cell-based; conditions: Homo sapiens
Procedure: as §1

PC-3 = experiment: Solid tumor cell growth inhibition, MTT, 72 h; type: cell-based; conditions: Homo sapiens
Procedure: as §1

MG-63 = experiment: Solid tumor cell growth inhibition, MTT, 72 h; type: cell-based; conditions: Homo sapiens
Procedure: as §1

SK-OV-3 = experiment: Solid tumor cell growth inhibition, MTT, 72 h; type: cell-based; conditions: Homo sapiens, SK-OV-3, 72 h, MTT; for IC50: read-out: IC50 SK-OV-3; for IC90: read-out: IC90 SK-OV-3
Procedure: as §1

Becap-37 = experiment: Solid tumor cell growth inhibition, MTT, 72 h; type: cell-based; conditions: Homo sapiens
Procedure: as §1

Hep G2 = experiment: Solid tumor cell growth inhibition, MTT, 72 h; type: cell-based; conditions: Homo sapiens, HepG2
Procedure: as §1

H9 = experiment: Leukemia cell growth inhibition, MTT, 72 h; type: cell-based, human; conditions: Homo sapiens, H9; 72 h, MTT
Text: (§2) Leukemia cell lines: leukemia cell lines: K562/adr (drug-resistant, chronic myeloid leukemia, CML), NB4 (acute promyelocytic leukemia, AML), Kasumi-1 (acute myeloid leukemia M2 type, AML-M2), Jurkat (acute lymphoblastic leukemia, ALL), all of which were donated by Cancer Research Institute of Zhejiang University, China; and H9 (acute lymphoblastic leukemia, ALL), which was purchased from China Center for Type Culture Collection.
(§3) 6000 well-growing leukemia cells were obtained and inoculated into wells of a 96-well cell culture plate. […] On the next day, the 1-oxo/acylated-14-acylated oridonin derivatives of different concentrations were added and mixed uniformly. The plate was placed in a carbon dioxide cell incubator (5% CO2) at 37° C. and was incubated for 72 hours. Then the viable cell concentration was determined by MTT method.

NB4 = experiment: Leukemia cell growth inhibition, MTT, 72 h; type: cell-based, human; conditions: Homo sapiens, NB-4; 72 h, MTT
Text: as §2, §3

Jurkat = experiment: Leukemia cell growth inhibition, MTT, 72 h; type: cell-based, human; conditions: Homo sapiens, Jurkat; 72 h, MTT
Text: as §2, §3

RPMI 8226 = experiment: Multiple myeloma cell growth inhibition, MTT, 72 h; type: cell-based; conditions: Homo sapiens
Procedure: Multiple myeloma cell lines: RPMI8226 (multiple myeloma), purchased from Fuxiang Bio-tech Co. Ltd., Shanghai, China.
6000 well-growing cells were obtained and inoculated into wells of a 96-well cell culture plate. […] On the next day, the 1-oxo/acylated-14-acylated oridonin derivatives of different concentrations were added and mixed uniformly. The plate was placed in a carbon dioxide cell incubator (5% CO2) at 37° C. and incubated for 72 hours. Then the viable cell concentration was determined by MTT method.

MGC-803 = experiment: Solid tumor cell growth inhibition, MTT, 72 h; type: cell-based, human; conditions: Homo sapiens, MGC-803; 72 h, MTT
Procedure: as §1

Hep-2 = experiment: Solid tumor cell growth inhibition, MTT, 72 h; type: cell-based, human; conditions: Homo sapiens, HEp-2; 72 h, MTT
Procedure: as §1

Hela = experiment: Solid tumor cell growth inhibition, MTT, 72 h; type: cell-based, human; conditions: Homo sapiens, HeLa; 72 h, MTT
Procedure: as §1

CNE = experiment: Solid tumor cell growth inhibition, MTT, 72 h; type: cell-based, human; conditions: Homo sapiens, CNE; 72 h, MTT
Procedure: as §1

Kasumi-1 = experiment: Leukemia cell growth inhibition, MTT, 72 h; type: cell-based; conditions: Homo sapiens
Text: as §2, §3

K562/ADR = experiment: Leukemia cell growth inhibition, MTT, 72 h; type: cell-based; conditions: Homo sapiens
Text: as §2, §3

Structure (SMILES)	IC50 (CaEs-17) [µg/mL]	IC90 (CaEs-17) [µg/mL]	IC50 (PANC-1) [µg/mL]	IC90 (PANC-1) [µg/mL]	IC50 (RKO) [µg/mL]	IC90 (RKO) [µg/mL]	IC50 (U87-MG) [µg/mL]	IC90 (U87-MG) [µg/mL]	IC50 (A549) [µg/mL]	IC90 (A549) [µg/mL]	IC50 (PC-3) [µg/mL]	IC90 (PC-3) [µg/mL]	IC50 (MG-63) [µg/mL]	IC90 (MG-63) [µg/mL]	IC50 (SK-OV-3) [µg/mL]	IC90 (SK-OV-3) [µg/mL]	IC50 (Becap-37) [µg/mL]	IC90 (Becap-37) [µg/mL]	IC50 (Hep G2) [µg/mL]	IC90 (Hep G2) [µg/mL]	further results
C=C1C(=O)[C@]23[C@H](OC(=O)c4cccs4)[C@H]1CC[C@H]2[C@@]12CO[C@@]3(O)[C@@H](O)[C@@H]1C(C)(C)CCC2=O [BS-OR-007]	0.93 (≈ 1.97 µM)	5.32 (≈ 11.3 µM)	1.63 (≈ 3.45 µM)	8.55 (≈ 18.1 µM)	0.43 (≈ 0.91 µM)	0.95 (≈ 2.01 µM)	0.78 (≈ 1.65 µM)	3.21 (≈ 6.79 µM)	2.13 (≈ 4.51 µM)	5.34 (≈ 11.3 µM)	1.69 (≈ 3.58 µM)	4.6 (≈ 9.73 µM)	0.42 (≈ 0.889 µM)	0.96 (≈ 2.03 µM)	1.69 (≈ 3.58 µM)	4.6 (≈ 9.73 µM)	1.02 (≈ 2.16 µM)	3.8 (≈ 8.04 µM)	1.54 (≈ 3.26 µM)	10.8 (≈ 22.9 µM)	IC50 (H9): 0.41 µg/mL (≈ 0.868 µM); IC90 (H9): 0.92 µg/mL (≈ 1.95 µM); IC50 (NB4): 0.08 µg/mL (≈ 0.169 µM); IC90 (NB4): 0.47 µg/mL (≈ 0.995 µM); IC50 (Jurkat): 0.71 µg/mL (≈ 1.5 µM); IC90 (Jurkat): 4.45 µg/mL (≈ 9.42 µM); IC50 (RPMI 8226): 0.37 µg/mL (≈ 0.783 µM); IC90 (RPMI 8226): 2.59 µg/mL (≈ 5.48 µM); IC50 (MGC-803): 0.95 µg/mL (≈ 2.01 µM); IC90 (MGC-803): 9.79 µg/mL (≈ 20.7 µM); IC50 (Hep-2): 1.76 µg/mL (≈ 3.72 µM); IC90 (Hep-2): 9.2 µg/mL (≈ 19.5 µM); IC50 (Hela): 1.64 µg/mL (≈ 3.47 µM); IC90 (Hela): 4.92 µg/mL (≈ 10.4 µM); IC50 (CNE): 1.33 µg/mL (≈ 2.81 µM); IC90 (CNE): 5.16 µg/mL (≈ 10.9 µM); IC50 (Kasumi-1): 0.71 µg/mL (≈ 1.5 µM); IC90 (Kasumi-1): 1.76 µg/mL (≈ 3.72 µM); IC50 (K562/ADR): 0.47 µg/mL (≈ 0.995 µM); IC90 (K562/ADR): 1.86 µg/mL (≈ 3.94 µM)
C=C1C(=O)[C@]23[C@H](OC(=O)c4cccc(C)c4)[C@H]1CC[C@H]2[C@@]12CO[C@@]3(O)[C@@H](O)[C@@H]1C(C)(C)CCC2=O [BS-OR-008]	1.22 (≈ 2.54 µM)	4.75 (≈ 9.88 µM)	1.73 (≈ 3.6 µM)	11.4 (≈ 23.6 µM)	0.47 (≈ 0.978 µM)	0.94 (≈ 1.96 µM)	0.86 (≈ 1.79 µM)	2.4 (≈ 4.99 µM)	2.75 (≈ 5.72 µM)	6.86 (≈ 14.3 µM)	1.59 (≈ 3.31 µM)	3.67 (≈ 7.64 µM)	0.42 (≈ 0.874 µM)	0.98 (≈ 2.04 µM)	1.59 (≈ 3.31 µM)	3.67 (≈ 7.64 µM)	1.08 (≈ 2.25 µM)	3.35 (≈ 6.97 µM)	1.74 (≈ 3.62 µM)	12.6 (≈ 26.2 µM)	IC50 (H9): 0.76 µg/mL (≈ 1.58 µM); IC90 (H9): 1.79 µg/mL (≈ 3.72 µM); IC50 (NB4): 0.29 µg/mL (≈ 0.603 µM); IC90 (NB4): 0.92 µg/mL (≈ 1.91 µM); IC50 (Jurkat): 0.73 µg/mL (≈ 1.52 µM); IC90 (Jurkat): 2.6 µg/mL (≈ 5.41 µM); IC50 (RPMI 8226): 0.37 µg/mL (≈ 0.77 µM); IC90 (RPMI 8226): 1.72 µg/mL (≈ 3.58 µM); IC50 (MGC-803): 1.39 µg/mL (≈ 2.89 µM); IC90 (MGC-803): 3.89 µg/mL (≈ 8.09 µM); IC50 (Hep-2): 3.11 µg/mL (≈ 6.47 µM); IC90 (Hep-2): 13.2 µg/mL (≈ 27.4 µM); IC50 (Hela): 1.45 µg/mL (≈ 3.02 µM); IC90 (Hela): 3.9 µg/mL (≈ 8.12 µM); IC50 (CNE): 2.16 µg/mL (≈ 4.49 µM); IC90 (CNE): 10.5 µg/mL (≈ 21.8 µM); IC50 (Kasumi-1): 0.73 µg/mL (≈ 1.52 µM); IC90 (Kasumi-1): 1.84 µg/mL (≈ 3.83 µM); IC50 (K562/ADR): 0.52 µg/mL (≈ 1.08 µM); IC90 (K562/ADR): 2.33 µg/mL (≈ 4.85 µM)
